Source: patent publication US11564911B2, “Small molecule dual-inhibitors of TRPV4 and TRPA1 for sanitizing and anesthetizing” (Duke University, priority 2016, dated 2023)

What was measured:
TRPV2 = molecular target: T1, TRPV2 (Mus musculus, UniProt Q9WTR1); assay: Ca++ imaging in N2a cells over-expressing TRPV2; type: cell-based; details: 5 μM, mouse isoform in N2a cells
T1 construct: expressed in transfected cells; host or cells: N2a cells, eGFP co-transfected
From the text: (§1) Mean±SEM is shown, ≥100 cells per condition. […] Plot generated from averaged peak ΔCa++ concentration of […] per data-point.

TRPV1 = molecular target: T2, TRPV1 (Mus musculus, UniProt Q704Y3); assay: Ca++ imaging in N2a cells over-expressing TRPV1; type: cell-based; details: 5 μM, mouse isoform in N2a cells
T2 construct: expressed in transfected cells; host or cells: N2a cells, eGFP co-transfected
From the text: as §1

[1] = system: WT mice, whisker-pad injection of 4% formalin; assay: Formalin-evoked trigeminal irritant pain, systemic (i.p.) compound, WT mice; type: in vivo, mouse; details: 10 mg/kg i.p.
Procedure: FIGS. 31A-31D: 16-8 and 16-19 effectively attenuate formalin-evoked trigeminal irritant pain. (FIG. 31A) Time-course of nocifensive behavior in WT mice following whisker-pad injection of 4% formalin. The mice were pre-injected (i.p., 10 mg/kg; 15 min before formalin) with GSK205, 16-8 or 16-19. Note effective reduction of nocifensive behavior in the late “neural” phase by compounds 16-8, 16-19, not by GSK205. (FIG. 31B) Cumulative response binned into 3 phases: acute phase (0-5 min), interphase (5-15 min), and late “neural” phase (15-45 min). […] (FIG. 31C) As in (FIG. 31A), but also including Trpv4^−/− mice. Compounds were applied i.p. 15 min before formalin challenge, at 10 mg/kg except established TRPA1 blocker, A967079 (25 mg/kg). […]
Compounds were tested for their effect in reducing pain using an in vivo pain model in mice. […] After injection, mice were immediately placed back into the chamber and the rubbing behavior was recorded by a private consumer-type video-camera for a 45 min observation period. The recording time was divided into 9 blocks of 5 min, and a nociceptive score was determined per block by measuring the time that the animals spent rubbing the injected area predominantly with the ipsilateral fore-paw and rarely with hind-paw. […]

[2] = system: Trpv4−/− mice, whisker-pad injection of formalin; assay: Formalin-evoked trigeminal irritant pain, systemic (i.p.) compound, Trpv4−/− mice; type: in vivo, mouse; details: 10 mg/kg i.p.; for late-phase pain behavior: vs vehicle / vs A967079 25 mg/kg
Procedure: FIGS. 31A-31D: 16-8 and 16-19 effectively attenuate formalin-evoked trigeminal irritant pain. (FIG. 31A) Time-course of nocifensive behavior in WT mice following whisker-pad injection of 4% formalin. The mice were pre-injected (i.p., 10 mg/kg; 15 min before formalin) with GSK205, 16-8 or 16-19. Note effective reduction of nocifensive behavior in the late “neural” phase by compounds 16-8, 16-19, not by GSK205. (FIG. 31B) Cumulative response binned into 3 phases: acute phase (0-5 min), interphase (5-15 min), and late “neural” phase (15-45 min). […] (FIG. 31C) As in (FIG. 31A), but also including Trpv4^−/− mice. Compounds were applied i.p. 15 min before formalin challenge, at 10 mg/kg except established TRPA1 blocker, A967079 (25 mg/kg). Previously-established attenuated nocifensive behavior in early and late phase in Trpv4^−/− mice was recapped, which was reduced further by TRPA1 blocker, A967079. (FIG. 31D) As in (FIG. 31B), plus inclusion of Trpv4^−/− mice. Robust effects of TRPA1-blocker, A967079, were mimicked equi-potently by 16-8 and 16-19 for early phase, and by 16-8 for late phase, partially by 16-19 for late phase. (FIG. 31A, FIG. 31C) show averaged behavioral metrics per time-point, bars in (FIG. 31B, FIG. 31D) represent mean±SEM; for (D) *p<0.05; #P<0.005, one-way ANOVA; for all panels n=5-8 mice/group.
Compounds were tested for their effect in reducing pain using an in vivo pain model in mice. For mouse formalin-evoked irritant behavior measurements, mice were well-fed, well-rested, and tested at the same time of day, at the same time-point of their circadian rhythm. They were allowed to acclimate to a plexiglas chamber for at least 30 min before testing, and received 10 μL subcutaneous injection of 4% of formalin (diluted from an aqueous solution of commercial 37% formaldehyde with normal saline (NS)) through a 30-gauge needle into the right whiskerpad, as further detailed in Luccarini et al. (J. Pain, 2006, 7, 908-914). Normal saline was used as control injection. After injection, mice were immediately placed back into the chamber and the rubbing behavior was recorded by a private consumer-type video-camera for a 45 min observation period. The recording time was divided into 9 blocks of 5 min, and a nociceptive score was determined per block by measuring the time that the animals spent rubbing the injected area predominantly with the ipsilateral fore-paw and rarely with hind-paw. This rubbing behavior with fore-paw is evoked by pain, which is distinct from itch behavior. Behavioral analysis was conducted by observers blinded to treatment.
We observed significant residual irritant-pain behavior in all phases of the formalin model in Trpv4^−/− mice, consistent with our previous report^13 (FIG. 31C,D). […] A reference TRPA1-inhibitory compound, A967079, was used at 25 mg/kg body weight as a positive control to inhibit TRPA1, based on a previous report^38. Reduction of pain behavior in Trpv4^−/− mice was striking, more than 50% in the late neural phase. […] We conclude that compound 16-8 also functions as a potent TRPA1-inhibitor in an in-vivo irritant pain model specifically designed to assess the contribution of TRPA1 to trigeminal irritant pain, and at least as potent as an established reference TRPA1-antagonistic compound.

human TRPV3 = molecular target: T3, human TRPV3 (Homo sapiens, UniProt Q8NET8); assay: Ca2+ signal in N2a cells transfected with human TRPV3 (camphor); type: cell-based; details: camphor stimulation
T3 construct: expressed in transfected cells; host or cells: N2a cells
Procedure: Compounds were tested for their effect on TRPV1, TRPV2, and TRPV3. Methods were similar to those described in Example 15. Briefly, N2a cells were transfected with human TRPV1, TRPV2, or TRPV3. eGFP-transfection was used as control. For specific stimulation of TRPV1, 5 μM capsaicin was used. For stimulation of TRPV2, hypotonicity (260 mosmol/L) was used, based on previous reports of TRPV2 being osmotically responsive. N2a cells were not responsive to hypotonicity, and neither were control-transfected cells. For TRPV3-expressing cells, camphor (20% of a commercially available stock solution) was used. […] Stimulation and control protocols were applied as for TRPA1-expressing N2a cells as detailed above in Example 15.

[3] = system: mice, UVB-exposed hind paws; assay: UVB-overexposure evoked nocifensive behavior, topical compound; type: in vivo, mouse; details: 0.5 mM in 40 μL
Procedure: Compounds were tested for their effect on nocifensive behavior (response to pain) following UVB overexposure. Behavioral tests were performed to evaluate the decrease in withdrawal thresholds in response to mechanical von Frey hair or thermal stimuli applied to hind paws. The Von-Frey apparatus (Ugo Basile) applied a mechanical stimulus with a flexible steel wire from underneath the hind paw. The force leading to withdrawal was determined. For the thermal stimuli test, paws were stimulated with heat from underneath applied by an infrared beam (Hargreave's test apparatus; Ugo Basile), and withdrawal latencies were recorded. The withdrawal thresholds were ascertained before and after UV exposure. Mice were exposed to UVB 3-5 days after the last application of tam/oil, using a Bio-Rad Gel Doc 2000 UV transilluminator (302 nm) for 5 min with an exposure of 600 mJ/cm^2. This represents 5-10 times the minimal erythema-inducing dose, in keeping with the rationale of inducing sunburn and studying sunburn-evoked pain.

T2 sequence (Q704Y3 whole entry, canonical isoform): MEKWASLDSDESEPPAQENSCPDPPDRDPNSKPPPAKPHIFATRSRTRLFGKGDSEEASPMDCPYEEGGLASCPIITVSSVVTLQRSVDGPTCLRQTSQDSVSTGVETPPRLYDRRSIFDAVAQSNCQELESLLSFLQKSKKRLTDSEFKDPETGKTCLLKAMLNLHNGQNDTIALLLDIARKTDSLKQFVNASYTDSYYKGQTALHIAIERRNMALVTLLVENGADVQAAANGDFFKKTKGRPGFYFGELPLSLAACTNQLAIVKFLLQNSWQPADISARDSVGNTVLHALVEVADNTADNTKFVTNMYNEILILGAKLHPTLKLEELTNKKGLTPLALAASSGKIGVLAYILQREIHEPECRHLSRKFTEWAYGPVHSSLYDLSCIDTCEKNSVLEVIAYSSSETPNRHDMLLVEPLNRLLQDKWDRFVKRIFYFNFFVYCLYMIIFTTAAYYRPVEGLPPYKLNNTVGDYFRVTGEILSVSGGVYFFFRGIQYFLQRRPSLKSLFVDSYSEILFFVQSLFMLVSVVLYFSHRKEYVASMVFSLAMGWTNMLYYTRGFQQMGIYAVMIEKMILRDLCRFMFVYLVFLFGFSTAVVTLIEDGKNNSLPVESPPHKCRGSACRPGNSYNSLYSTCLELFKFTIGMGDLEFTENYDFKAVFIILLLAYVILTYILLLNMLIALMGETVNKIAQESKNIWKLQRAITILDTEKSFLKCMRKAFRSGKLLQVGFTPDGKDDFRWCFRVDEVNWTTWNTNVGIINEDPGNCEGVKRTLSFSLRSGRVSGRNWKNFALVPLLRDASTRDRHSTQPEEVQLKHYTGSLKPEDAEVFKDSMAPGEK
T1 sequence (Q9WTR1 whole entry, canonical isoform): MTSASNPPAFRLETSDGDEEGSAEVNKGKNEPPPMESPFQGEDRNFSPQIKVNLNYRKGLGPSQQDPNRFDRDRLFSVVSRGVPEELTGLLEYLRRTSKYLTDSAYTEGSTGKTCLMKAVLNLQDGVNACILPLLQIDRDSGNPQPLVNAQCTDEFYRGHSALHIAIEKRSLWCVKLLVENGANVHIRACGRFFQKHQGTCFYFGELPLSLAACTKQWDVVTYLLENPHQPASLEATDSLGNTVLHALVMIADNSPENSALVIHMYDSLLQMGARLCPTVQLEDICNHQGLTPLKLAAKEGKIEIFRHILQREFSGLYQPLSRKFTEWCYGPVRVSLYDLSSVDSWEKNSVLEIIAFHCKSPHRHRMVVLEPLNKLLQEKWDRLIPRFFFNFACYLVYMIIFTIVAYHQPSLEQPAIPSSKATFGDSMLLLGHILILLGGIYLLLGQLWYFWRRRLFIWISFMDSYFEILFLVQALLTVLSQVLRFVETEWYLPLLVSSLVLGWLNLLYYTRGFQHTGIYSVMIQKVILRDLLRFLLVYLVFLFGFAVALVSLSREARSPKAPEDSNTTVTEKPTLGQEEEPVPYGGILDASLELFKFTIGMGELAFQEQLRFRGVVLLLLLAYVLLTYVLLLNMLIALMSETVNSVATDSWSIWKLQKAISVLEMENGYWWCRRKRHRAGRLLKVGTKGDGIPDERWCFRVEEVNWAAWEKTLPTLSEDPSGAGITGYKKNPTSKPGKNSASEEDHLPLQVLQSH
T3 sequence (Q8NET8 whole entry): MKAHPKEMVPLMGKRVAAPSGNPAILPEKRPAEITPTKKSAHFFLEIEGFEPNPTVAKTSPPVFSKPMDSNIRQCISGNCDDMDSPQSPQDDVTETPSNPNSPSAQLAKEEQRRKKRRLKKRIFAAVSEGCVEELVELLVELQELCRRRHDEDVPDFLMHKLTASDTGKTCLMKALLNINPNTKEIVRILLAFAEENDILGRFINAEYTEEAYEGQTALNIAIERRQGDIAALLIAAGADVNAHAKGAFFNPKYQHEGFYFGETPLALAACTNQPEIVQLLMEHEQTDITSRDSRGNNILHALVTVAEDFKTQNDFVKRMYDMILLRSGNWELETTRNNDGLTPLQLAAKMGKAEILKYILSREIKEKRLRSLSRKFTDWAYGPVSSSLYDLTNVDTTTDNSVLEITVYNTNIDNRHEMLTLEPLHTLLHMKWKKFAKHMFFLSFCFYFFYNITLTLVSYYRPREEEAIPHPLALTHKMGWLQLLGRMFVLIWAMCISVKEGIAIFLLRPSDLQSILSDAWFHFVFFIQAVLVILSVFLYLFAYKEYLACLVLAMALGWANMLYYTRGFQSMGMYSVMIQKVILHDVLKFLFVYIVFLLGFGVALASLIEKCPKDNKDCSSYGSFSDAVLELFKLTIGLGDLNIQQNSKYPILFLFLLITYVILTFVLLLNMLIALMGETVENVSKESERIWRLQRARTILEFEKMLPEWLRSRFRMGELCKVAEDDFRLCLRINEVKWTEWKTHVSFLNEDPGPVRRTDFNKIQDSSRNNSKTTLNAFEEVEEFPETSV

Compound | inhibition of TRPV2 (TRPV2) | inhibition of TRPV1 (TRPV1) | formalin-evoked pain behavior in the delayed (late, neural) phase [1] | immediate-phase pain behavior [2] | late-phase pain behavior [2] | effect on Ca2+ transience, TRPV3 (human TRPV3) | response to pain following UVB exposure [3]
CN(CCc1ccc(Nc2nc(-c3ccccc3)cs2)cc1)Cc1ccccc1 [Compound 16-8] | did not inhibit | did not inhibit | significant attenuation | virtually eliminated | strikingly reduced | not affected | especially effective
CCN(CCc1ccc(Nc2nc(-c3ccccc3)cs2)cc1)Cc1ccccc1 [Compound 16-19] | did not inhibit | did not inhibit | robust effect | virtually eliminated | significantly reduced | not affected | –
CN(CCc1ccc(Nc2nc(-c3cccnc3)cs2)cc1)Cc1ccccc1 [GSK205] | – | – | – | – | – | – | as effective as vehicle
